Like-named read-outs stand apart in the source and are kept apart here.
Legend:
[1] = system: SOX17 (endoderm marker) in RUES2-GLR cells; experiment: DevTox GLR-Endo assay: decrease in percent SOX17-positive cells (AEID 3094, Sox17_dn); conditions: for Hit Call: Table S2, SOX17-positive cells, cutoff 3*bmad; for HIT−CALL: tcpl plot AEID3094, COFF 20.3; for DevTox ACC: Table S2, percent SOX17-positive cells
Procedure: (§1) The total test chemical incubation period was 48 h.
(§2) Assay plate controls included non-differentiated pluripotent cells maintained in complete Essential 8 Flex medium (baseline control), endoderm differentiated cells (differentiation control), endoderm differentiated cells treated with DMSO (0.2%) (solvent control), and TGF-ß receptor inhibitor SB431542 (1 µM)-treated cells (developmental toxicant-positive control) (Figure S3). All experiments were completed with a minimum of four biological replicates (n = 4).
(§3) (Supplementary Materials).

RUES2-GLR cells = experiment: DevTox GLR-Endo assay: decrease in total cell count, cytotoxicity (AEID 3098, CellCount_dn); conditions: for Emax: Homo sapiens, read-out: Cell Count % Max Inhibition
Procedure: as §1, §2, §3

[2] = system: SOX17 (endoderm marker) in RUES2-GLR cells; experiment: DevTox GLR-Endo assay: increase in percent SOX17-positive cells (AEID 3093, Sox17_up); format: cell-based, human; parameters: tp (winning model): unit not given here; conditions: for Emax: Homo sapiens; for HIT−CALL: tcpl plot AEID3093, COFF 20.3
Procedure: as §1, §3

[3] = system: SOX17 in H9 human ESC line; conditions: SOX17 half-maximal inhibition concentration; read-out: hPST IC50; cited from earlier work
[4] = system: SOX2 (ectoderm and pluripotency marker) in RUES2-GLR cells; experiment: DevTox GLR-Endo assay: increase in percent SOX2-positive cells (AEID 3095, Sox2_up); conditions: for MAX_MEAN: tcpl plot AEID3095, maximum mean response; for MAX_MED: tcpl plot AEID3095, maximum median response; for AC50 / Emax: Homo sapiens; for AC50: read-out: ga (winning model); for Emax: read-out: tp (winning model);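 for all read-outs here: cells exposed to test chemicals for 48 h in total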
in vitro = conditions: human
Procedure: as §1, §2, §3

[5] = system: BRA (mesoderm marker) in RUES2-GLR cells; experiment: DevTox GLR-Endo assay: increase in percent BRA-positive cells (AEID 3096, Bra_up); format: cell-based, human; conditions: for HIT−CALL: tcpl plot AEID3096, COFF 0.774; for MAX_MEAN: tcpl plot AEID3096, maximum mean response
Procedure: as §1, §3

H9 human ESC line = conditions: cited from earlier work
[6] = cited from earlier work; for Development Toxicant Classification: Table S2; for Classification: developmental toxicant classification (Teratogen / Non-Teratogen) of reference and training chemicals, ref DOI per chemical: 10.1093/toxsci/kft239, 10.1093/toxsci/kfaa014, 10.1177/026119290203000204, 10.1038/s41598-020-59542-x; for DT Class.: developmental toxicant classification
[7] = Homo sapiens, read-out: DevTox % Max Inhibition
[8] = Homo sapiens, read-out: MAX_MEAN
[9] = Homo sapiens, read-out: MAX_MED
[10] = Homo sapiens, read-out: tp (winning model)
[11] = tcpl plot AEID3093, maximum mean response, read-out: MAX_MEAN
[12] = tcpl plot AEID3093, maximum median response, read-out: MAX_MED
[13] = Homo sapiens, 48 h, read-out: DevTox-GLR Endo AC50 (µM)
[14] = Homo sapiens, 48 h, read-out: DevTox-GLR Endo AC50 (µM), SOX17 half-maximal activity concentration, 48 h exposure
[15] = Homo sapiens, read-out: ga (winning model), tcpl plot AEID3094, gain parameter of winning curve fit (log concentration, µM axis), hit calls only (converted)
[16] = cytotoxicity half-maximal concentration

| SMILES | Emax [1, 7] [%] | Emax [1, 8] [%] | Emax [1, 9] [%] | Emax [1, 10] [%] | Hit Call [1] | HIT−CALL [1] | Emax (RUES2-GLR cells) [%] | Cell Count ACC (RUES2-GLR cells; human, 48 h) [µM] | Emax [2, 11] [%] | Emax [2, 12] [%] | HIT−CALL [2] | IC50 [3] [µM] | MAX_MEAN [4] [Percent Activity] | MAX_MED [4] [Percent Activity] | DevTox ACC ([1]; 48 h exposure) [µM] | CC50 at 48 h (in vitro) [µM] | hPST TC50 (H9 human ESC line; [16]) [µM] | hPST TC50 (H9 human ESC line; hPST cytotoxicity) [µM] | Development Toxicant Classification [6] | DT Class. ([6]; chemicals common with hPST) | other results |
| --- | --- | --- | --- | --- | --- | --- | --- | --- | --- | --- | --- | --- | --- | --- | --- | --- | --- | --- | --- | --- | --- |
| CC(C)Cc1ccc(C(C)C(=O)O)cc1 (stereo not shown) [Ibuprofen] | 23.9 | 24.3 | 23.9 | 42.6 | Positive | 1 | 22.2 | 122.424 | 11.6 | 11.9 | 0 | > 200 | 0.944 | 0.561 | – | – | – | – | – | – | – |
| Cn1c(=O)c2c(ncn2C)n(C)c1=O [Caffeine] | 9.41 | 6.68 | 9.41 | – | Negative | 0 | 10.3 | >200 | 9.91 | 11 | 0 | > 400 | 0.413 | 0.416 | >200 | > 200 | – | – | – | – | AC50 [1, 13]: > 200 µM; HIT−CALL [5]: 1; MAX_MEAN [5]: 1.09 Percent Activity |
| CCN(CC)CCNC(=O)c1c(C)[nH]c(/C=C2\C(=O)Nc3ccc(F)cc32)c1C [Sunitinib] | 102 | 102 | 102 | 101 | Positive | 1 | 97.7 | – | 0.538 | 0.596 | 0 | 2.8 | 3 | 3.23 | 0.5184 | – | 3.6 | 3.6 | Positive | Pos | SOX17 ACC relative to cytotoxic concentration (in words) [1]: below cytotoxic concentrations; AC50 [1, 14]: 0.63 µM; AC50 [1, 15]: 0.628 µM; CC50 at 48 h (in vitro; RUES2-GLR cells under directed endoderm differentiation): 1.26 µM; Cell Count ACC (RUES2-GLR cells; Table S2, 48 h exposure): 0.6087 µM; Classification [6]: Teratogen; AC50 [4]: 5.41 µM; Emax [4]: 6.74% |
| Nc1nc2ncc(CNc3ccc(C(=O)N[C@@H](CCC(=O)O)C(=O)O)cc3)nc2c(=O)[nH]1 [Folic Acid] | 16.4 | 13.8 | 16.4 | – | Negative | 0 | 13.7 | >200 | 8.84 | 8.92 | 0 | 39 | 0.885 | 0.515 | >200 | > 200 | 84 | 84 | – | – | AC50 [1, 14]: > 200 µM |
| NC(=O)c1ccc(N)nc1 [6-Aminonicotinamide, 6−aminopyridine−3−carboxamide] | 101 | 101 | 101 | 101 | Positive | 1 | 89.9 | – | 2.7 | 3 | 0 | 7 | 4.77 | 4.39 | 12.5605 | – | 8 | 8 | Positive | Pos | AC50 [1, 13]: 16.6 µM; AC50 ([1]; Homo sapiens, read-out: ga (winning model)): 16.6 µM; SOX17 ACC relative to cytotoxic concentration (in words) ([1]; training set, ACC versus cell count ACC): below cytotoxic concentrations; CC50 (in vitro): 23.9 µM; Cell Count ACC (RUES2-GLR cells; Table S2, 48 h exposure): 20.3443 µM; Classification [6]: Teratogen; AC50 [4]: 309 µM; Emax [4]: 9.6% |
| CC1=C(/C=C/C(C)=C/C=C/C(C)=C\C(=O)O)C(C)(C)CCC1 | – | – | – | – | Positive | 1 | – | – | – | – | 0 | 0.2 | 47.5 | 48.5 | 0.02117 | – | 140 | 140 | Positive | Pos | SOX17 ACC relative to cytotoxic concentration (in words) [1]: below cytotoxic concentrations; DevTox % Max Inhibition ([1]; Table S2, percent SOX17-positive cells relative to DMSO): 100.964%; AC50 ([1]; read-out: DevTox-GLR Endo AC50, SOX17 half-maximal activity concentration, 48 h exposure): 0.16 µM; ga (winning model) ([1]; tcpl plot AEID3094, gain parameter of winning curve fit (log concentration, µM axis), hit calls only): −0.807; MAX_MEAN ([1]; tcpl plot AEID3094, maximum mean response): 101 Percent Activity; MAX_MED ([1]; tcpl plot AEID3094, maximum median response): 101 Percent Activity; tp (winning model) ([1]; tcpl plot AEID3094, top of winning curve fit (Hill or gain-loss), hit calls only): 100; Cell Count ACC (RUES2-GLR cells): 4.122 µM; Cell Count % Max Inhibition (RUES2-GLR cells; Table S2, cell count relative to DMSO): 97.7228%; CC50 (RUES2-GLR cells; read-out: DevTox-GLR Endo CC50, cell count half-maximal concentration, 48 h exposure): 10.2 µM; MAX_MEAN ([2]; tcpl plot AEID3093, maximum mean response): −11.9 Percent Activity; MAX_MED ([2]; tcpl plot AEID3093, maximum median response): −11.9 Percent Activity; Classification [6]: Teratogen; ga (winning model) ([4]; tcpl plot AEID3095, gain parameter of winning curve fit (log concentration, µM axis), hit calls only): 1.54; tp (winning model) ([4]; tcpl plot AEID3095, top of winning curve fit (Hill or gain-loss), hit calls only): 39.6 |
| CC/C(=C(/CC)c1ccc(O)cc1)c1ccc(O)cc1 [Diethylstilbestrol] | 101 | 101 | 101 | 101 | Positive | 1 | 95.7 | 0.5959 | 6.93 | 6.73 | 0 | – | 6.09 | 4.84 | – | 0.71 | 4.4 | 4.4 | Positive | Pos | AC50 [1, 14]: 0.64 µM; AC50 [1, 15]: 0.644 µM; DevTox-GLR Endo ACC ([1]; activity concentration at cutoff, SOX17-positive cells, 48 h exposure): 0.54 µM; DevTox-GLR Endo CC (RUES2-GLR cells; human, 48 h): 0.60 µM; Classification [6]: Teratogen; DT Class. ([6]; chemicals common with quickPredict): Pos; AC50 [4]: 2.13 µM; Emax [4]: 3.84% |
| Nc1nc2c(ncn2COCCO)c(=O)[nH]1 [Acyclovir] | 7.79 | 8.36 | 7.79 | – | Negative | 0 | 7.77 | >200 | 6.68 | 7.67 | 0 | > 200 | 2.09 | 0.473 | – | – | – | – | – | – | HIT−CALL [5]: 1; MAX_MEAN [5]: 0.981 Percent Activity; MAX_MED ([5]; tcpl plot AEID3096, maximum median response): 1.09 Percent Activity |
| COc1cccc2c1C(=O)c1c(O)c3c(c(O)c1C2=O)C[C@@](O)(C(=O)CO)C[C@@H]3O[C@H]1C[C@H](N)[C@H](O)[C@H](C)O1 [Doxorubicin] | – | – | – | – | Positive | 1 | 93.9 | 0.001329 | 50.4 | 51.7 | 1 | – | 9.13 | 8.86 | 0.001242 | 0.0033 | <0.3 | < 0.3 | Positive | Pos | AC50 [1, 14]: 0.0019 µM; AC50 [1, 15]: 0.00186 µM; tp (winning model) ([2]; tcpl plot AEID3093, top of winning curve fit, hit calls only): 48.7; AC50 [4]: 0.64 µM; Emax [4]: 19.8% |
